Our source for the IC50 values is the Kinase Knowledgebase extract (Sharma et al. 2016).

A value given as a limit tells only on which side of the number the result lay.

In the test the target is PIK3CD (Human) (UniProt O00329). Kind of test: Enzyme Assay.
Sequence of PIK3CD (Human) (O00329 whole entry, looked up): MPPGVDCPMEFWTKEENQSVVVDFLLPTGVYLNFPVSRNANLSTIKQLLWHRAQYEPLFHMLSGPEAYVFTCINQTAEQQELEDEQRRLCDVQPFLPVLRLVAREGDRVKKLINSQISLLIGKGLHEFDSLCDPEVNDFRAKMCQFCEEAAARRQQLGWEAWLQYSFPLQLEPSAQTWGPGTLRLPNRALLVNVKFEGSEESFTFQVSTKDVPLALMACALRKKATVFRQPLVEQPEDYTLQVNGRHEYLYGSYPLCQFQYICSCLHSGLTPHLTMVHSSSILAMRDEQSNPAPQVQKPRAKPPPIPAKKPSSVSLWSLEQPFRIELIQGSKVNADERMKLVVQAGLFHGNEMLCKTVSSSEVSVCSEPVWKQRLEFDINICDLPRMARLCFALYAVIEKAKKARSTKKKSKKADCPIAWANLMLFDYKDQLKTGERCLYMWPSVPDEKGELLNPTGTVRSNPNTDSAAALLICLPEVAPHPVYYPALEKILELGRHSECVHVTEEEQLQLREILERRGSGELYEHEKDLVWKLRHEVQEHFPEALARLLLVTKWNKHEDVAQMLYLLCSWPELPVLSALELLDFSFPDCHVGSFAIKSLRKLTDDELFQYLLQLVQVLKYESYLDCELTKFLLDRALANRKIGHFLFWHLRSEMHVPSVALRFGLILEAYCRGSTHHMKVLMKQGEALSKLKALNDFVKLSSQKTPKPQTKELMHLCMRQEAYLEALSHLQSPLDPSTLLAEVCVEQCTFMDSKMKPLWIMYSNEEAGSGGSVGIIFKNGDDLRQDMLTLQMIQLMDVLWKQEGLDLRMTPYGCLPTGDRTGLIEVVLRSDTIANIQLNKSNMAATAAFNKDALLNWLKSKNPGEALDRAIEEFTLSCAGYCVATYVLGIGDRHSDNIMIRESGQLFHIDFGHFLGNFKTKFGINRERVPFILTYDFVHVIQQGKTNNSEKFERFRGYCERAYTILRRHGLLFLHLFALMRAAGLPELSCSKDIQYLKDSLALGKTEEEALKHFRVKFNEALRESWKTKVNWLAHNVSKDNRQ
By IC50 is commonly meant the point on the concentration scale where inhibition reaches its midpoint. High values mean weaker potency in that assay, low ones greater potency in that assay. As to `CCn1ncc(-c2nc3c(O[C@H]4CCN(C(=O)c5nnc(C)o5)C4)ncnc3n2C)c1C`, the IC50 came out at 31 nM.

Turning to `Cn1c(-c2ccc(-n3cccn3)cc2)nc2c(O[C@H]3CCN(C(=O)OC(C)(C)C)C3)ncnc21`, the IC50 amounted to 30 nM.

In turn, `CCC(=O)N1CC[C@H](Oc2ncnc3c2nc(-c2cnc(OC)c(C(F)(F)F)c2)n3C)C1` registered an IC50 of 7.8 nM.

Turning to `CCC(=O)N1CC[C@H](Oc2ncnc3c2nc(-c2cnn4c2CCCC4)n3C)C1`, the IC50 stood at 2.4 nM. Against the preceding compound, the IC50 is about 3.2-fold lower.

On to `CCn1c(-c2cnn3c2CCCC3)nc2c(O[C@H]3CCN(C(=O)C(C)C)C3)ncnc21`, for which the IC50 was below 1 nM.

Compound `CCn1c(-c2cnc(C)nc2)nc2c(O[C@H]3CCN(C(=O)OCCCN(C)C)C3)ncnc21` yielded a 50% inhibitory concentration (IC50) of 37 nM.

`CCn1c(N(C)CC(C)C)nc2c(O[C@H]3CCN(C(=O)OC(C)(C)C)C3)ncnc21` returned an IC50 of 150 nM.

In turn, `CCn1c(-c2cnn(-c3ccccc3)c2C)nc2c(O[C@H]3CCN(C(=O)C4CC4)C3)ncnc21` gave an IC50 below 1 nM.

Consider `CCn1c(-c2cnc(C)nc2)nc2c(O[C@H]3CCN(C(=O)c4cocn4)C3)ncnc21`, for which the IC50 stood at 14 nM.

As to `CCn1c(-c2cnc(C)nc2)nc2c(O[C@H]3CCN(C(=O)C4CC4C)C3)ncnc21` (stereo partly specified), the IC50 was 1.5 nM. This IC50 is about 9.3-fold lower than that of the compound before.

As for `CCn1c(-c2cnc(OC)c(F)c2)nc2c(O[C@H]3CCN(C(=O)C4CCOCC4)C3)ncnc21`, the IC50 is below 1 nM.

Regarding `CCn1ncc(-c2nc3c(O[C@H]4CCN(C(=O)C(C)(C)C)C4)ncnc3n2C)c1C`, the IC50 was determined as 22 nM.

`CCn1ncc(-c2nc3c(OC4CCN(C(=O)c5cnco5)C4)ncnc3n2C)c1C` (stereo unspecified) displayed an IC50 of 17 nM. This IC50 and that of the compound before are within 1.5-fold of each other.

`CCC(=O)N1CC[C@H](Oc2ncnc3c2nc(-c2cnc(OC)c(C#N)c2)n3C)C1` registered an IC50 of 8.4 nM. Against the preceding compound, the IC50 is about 2-fold lower.

Take `CCn1ncc(-c2nc3c(O[C@H]4CCN(C(=O)NC5CCCCC5)C4)ncnc3n2C)c1C`: the IC50 worked out at 230 nM. This IC50 is about 27-fold higher than that of the compound before.

`CCn1ncc(-c2nc3c(O[C@H]4CCN(C(=O)c5nnsc5C)C4)ncnc3n2C)c1C` yielded an IC50 of 5.3 nM.

Regarding `CCn1ncc(-c2nc3c(O[C@H]4CCN(C(=O)c5cnn(C)c5)C4)ncnc3n2C)c1C`, the IC50 is 14 nM. This IC50 lies about 2.6-fold higher than the previous one.

Take `CCn1ncc(-c2nc3c(O[C@H]4CCN(C(=O)c5cc(C)n(C)n5)C4)ncnc3n2C)c1C`: the concentration for half-maximal inhibition (IC50) was determined as 150 nM. Compared with the last compound, the IC50 is about 11-fold higher.

The compound `CCn1c(-c2cnc(C)nc2)nc2c(O[C@H]3CCN(c4ccccc4)C3)ncnc21` gave a concentration for half-maximal inhibition (IC50) of 9.1 nM. This IC50 is about 16-fold lower than that of the compound before.

On to `CC(=O)Nc1ccc(-c2nc3c(O[C@H]4CCN(C(=O)OC(C)(C)C)C4)ncnc3n2C)cc1`, for which the IC50 was 140 nM.

`CCn1ncc(-c2nc3c(O[C@H]4CCN(C(=O)c5nc6cc(Cl)ccn6n5)C4)ncnc3n2C)c1C` registered an IC50 of 860 nM. This IC50 is about 6.1-fold higher than that of the compound before.

Compound `CCn1c(-c2cnc(C)nc2)nc2c(O[C@H]3CCN(C(=O)[C@@H](N)C(C)C)C3)ncnc21` displayed an IC50 of 9.8 nM.

As to `CCC(=O)N1CC[C@H](Oc2ncnc3c2nc(-c2ccc(S(C)(=O)=O)cc2)n3C)C1`, the IC50 came out at 300 nM.

As for `CCC(=O)N1CC[C@H](Sc2ncnc3c2nc(-c2cnn(CC)c2C)n3C)C1`, the IC50 came out at 11 nM.

Take `CCn1c(-c2cnc(C)nc2)nc2c(O[C@H]3CCN(C(=O)[C@@H]4CCC[C@H]4N)C3)ncnc21`: the IC50 is 39 nM. Against the preceding compound, the IC50 is about 3.5-fold higher.

On to `CCn1c(-c2cnc(C)nc2)nc2c(O[C@@H]3CN(C(=O)C4CC4)C[C@H]3OC)ncnc21`, for which the half-maximal inhibitory concentration (IC50) is 41 nM.

On to `CCn1c(-c2cnc(C)nc2)nc2c(O[C@H]3CCN(C(=O)N4CCC(C)(C)C4)C3)ncnc21`, for which the IC50 worked out at 3.8 nM.

`CCn1ncc(-c2nc3c(O[C@H]4CCN(C(=O)OC(C)C)C4)ncnc3n2C)c1C` had an IC50 of 8.1 nM. Compared with the last compound, the IC50 is about 2.1-fold higher.

In turn, `CCC(=O)N1CC[C@H](Oc2ncnc3c2nc(-c2cnc4[nH]ccc4c2)n3C)C1` registered an IC50 of 19 nM.

Compound `CCn1c(-c2cnc(C)nc2)nc2c(O[C@H]3CCN(C(=O)N4CCC(F)(F)C4)C3)ncnc21` had an IC50 of 14 nM.

Compound `CCn1ncc(-c2nc3c(O[C@H]4CCN(S(=O)(=O)c5ccc6ccccc6c5)C4)ncnc3n2C)c1C` had an IC50 of 220 nM. Against the preceding compound, the IC50 is about 16-fold higher.

`CCn1ncc(-c2nc3c(O[C@H]4CCN(C(=O)c5cc(C)[nH]n5)C4)ncnc3n2C)c1C` came in with an IC50 of 28 nM.

Regarding `CCC(=O)N1CC[C@H](Oc2ncnc3c2nc(-c2ccc4cc[nH]c4c2)n3C)C1`, the IC50 was found to be 120 nM.

With `CCC(=O)N1CC[C@H](Oc2ncnc3c2nc(-c2ccc4[nH]ccc4c2)n3C)C1`, the IC50 worked out at 37 nM.

`CCn1ncc(-c2nc3c(O[C@H]4CCN(C(=O)c5cnn(C(C)C)c5)C4)ncnc3n2C)c1C` came in with an IC50 of 30 nM.

For the compound `CCn1ncc(-c2nc3c(O[C@H]4CCN(C(=O)C5(C)CCOCC5)C4)ncnc3n2C)c1C`, the IC50 turned out to be 28 nM.

Regarding `CCn1c(-c2cnc(C)nc2)nc2c(O[C@H]3CCN(C(=O)C4CNC4)C3)ncnc21`, the IC50 amounted to 70 nM.

Regarding `CCn1ncc(-c2nc3c(S(=O)(=O)[C@H]4CCN(C(=O)OC(C)(C)C)C4)ncnc3n2C)c1C`, the IC50 came to 160 nM. This IC50 lies about 2.3-fold higher than the previous one.

The compound `CCn1c(-c2cnc(C)nc2)nc2c(O[C@H]3CCN(C(=O)C4CCOC4)C3)ncnc21` (stereo partly specified) displayed an IC50 of 5.8 nM.

`CCn1ncc(-c2nc3c(O[C@H]4CCN(C(=O)C5CC(=O)N(C(C)C)C5)C4)ncnc3n2C)c1C` (stereo partly specified) registered a concentration for half-maximal inhibition (IC50) of 10 nM.

`CCn1ncc(-c2nc3c(O[C@H]4CCN(C(=O)c5cc(C)on5)C4)ncnc3n2C)c1C`: the IC50 was determined as 12 nM.

`CCn1c(-c2cnc(C)nc2)nc2c(OC3CN(C(=O)C4CC4)CC3C)ncnc21` (stereo unspecified) displayed a half-inhibitory concentration (IC50) of 2.9 nM. Compared with the last compound, the IC50 is about 4.1-fold lower.

On to `CCn1ncc(-c2nc3c(O[C@H]4CCN(c5cc(-n6cc(C)cn6)ncn5)C4)ncnc3n2C)c1C`, for which the IC50 came out at 160 nM.

`CCn1c(-c2cnc(C(F)(F)F)nc2)nc2c(O[C@H]3CCN(C(=O)C4CC4)C3)ncnc21` showed an IC50 of 18 nM.

`CCn1ncc(-c2nc3c(O[C@H]4CCN(C(=O)C5CCc6nnnn65)C4)ncnc3n2C)c1C` (stereo partly specified) displayed an IC50 of 23 nM.

In turn, `CCOC(=O)N1CC[C@H](Oc2ncnc3c2nc(-c2cnn(CC)c2C)n3C)C1` yielded a 50% inhibitory concentration (IC50) of 33 nM.

As for `CCn1c(-c2cnc(OC)c(C)c2)nc2c(O[C@H]3CCN(C(=O)OC(C)(C)C)C3)ncnc21`, the IC50 was found to be 0.7 nM.

Take `CCn1ncc(-c2nc3c(OC4CCN(C(=O)COC)C4)ncnc3n2C)c1C` (stereo unspecified): the IC50 was 77 nM.

`CCn1ncc(-c2nc3c(O[C@H]4CCN(Cc5ccc(N(C)C)cc5)C4)ncnc3n2C)c1C` gave an IC50 of 3100 nM.

Turning to `CCn1ncc(C(=O)N2CC[C@H](Oc3ncnc4c3nc(-c3cnn(CC)c3C)n4C)C2)c1C`, the IC50 worked out at 29 nM.

On to `COC1CC(c2nc3c(O[C@H]4CCN(C(=O)OC(C)(C)C)C4)ncnc3n2C)C1` (stereo partly specified), for which the concentration for half-maximal inhibition (IC50) came to 2100 nM.

As to `Cn1c(-c2ccc(N3CCCC3)nc2)nc2c(O[C@H]3CCN(C(=O)OC(C)(C)C)C3)ncnc21`, the IC50 is 590 nM.

On to `CCC(=O)N1CC[C@H](S(=O)(=O)c2ncnc3c2nc(-c2cnn(CC)c2C)n3C)C1`, for which the 50% inhibitory concentration (IC50) was 210 nM.

The compound `CCn1c(-c2cnc(C)nc2)nc2c(O[C@H]3CCN(C(=O)C4CCOCC4)C3)ncnc21` yielded an IC50 of 8.5 nM.

For the compound `CCn1ncc(-c2nc3c(O[C@H]4CCN(C(=O)c5cn6cccnc6n5)C4)ncnc3n2C)c1C`, the IC50 is 100 nM.

Compound `CCn1ncc(-c2nc3c(O[C@H]4CCN(C(=O)c5cc6occc6[nH]5)C4)ncnc3n2C)c1C` yielded an IC50 of 210 nM. This IC50 lies about 2.1-fold higher than the previous one.

As for `CCn1ncc(-c2nc3c(O[C@H]4CCN(C(=O)c5cc(C(F)(F)F)nn5C)C4)ncnc3n2C)c1C`, the IC50 was determined as 26 nM.

In turn, `CCn1c(-c2cnc(C)nc2)nc2c(O[C@H]3CCN(C(=O)N4CC5CC5C4)C3)ncnc21` (stereo partly specified) showed an IC50 of 5.7 nM.

The compound `CCn1c(C(=O)NCC(F)(F)F)nc2c(O[C@H]3CCN(C(=O)OC(C)(C)C)C3)ncnc21` came in with an IC50 of 31 nM.

`CCn1ncc(-c2nc3c(O[C@H]4CCN(C(=O)c5conc5C)C4)ncnc3n2C)c1C` had an IC50 of 14 nM.

For `CCc1nc(C)c(C(=O)N2CC[C@H](Oc3ncnc4c3nc(-c3cnn(CC)c3C)n4C)C2)o1`, the IC50 was determined as 12 nM.

The compound `CCC(=O)N1CC[C@H](Oc2ncnc3c2nc(-c2cnn(CC)c2C)n3C)C1` came in with an IC50 of 12 nM. In other words, the double-digit nanomolar range.

Turning to `CCn1ncc(-c2nc3c(O[C@H]4CCN(C(=O)c5nonc5C)C4)ncnc3n2C)c1C`, the IC50 was 26 nM.

In turn, `CCn1ncc(-c2nc3c(O[C@H]4CCN(S(=O)(=O)C(C)C)C4)ncnc3n2C)c1C` yielded a concentration for half-maximal inhibition (IC50) of 530 nM.

The compound `CCC(=O)N1CC[C@H](Oc2ncnc3c2nc(Oc2cnc(C)nc2)n3C)C1` came in with an IC50 of 380 nM.

Regarding `CCn1ncc(-c2nc3c(O[C@H]4CCN(C(=O)c5ccccn5)C4)ncnc3n2C)c1C`, the IC50 is 27 nM.

On to `Cn1c(-c2cncc3ccccc23)nc2c(O[C@H]3CCN(C(=O)OC(C)(C)C)C3)ncnc21`, for which the 50% inhibitory concentration (IC50) is 320 nM.

The compound `CCn1c(-c2cnc(OC)c(C)c2)nc2c(O[C@H]3CCN(C(=O)C4CC4)C3)ncnc21` returned a half-inhibitory concentration (IC50) below 1 nM.

In turn, `CCn1ncc(-c2nc3c(O[C@H]4CCN(C(=O)C(C)C)C4)ncnc3n2C)c1C` yielded an IC50 of 4 nM.

`CCn1ncc(-c2nc3c(O[C@H]4CCN(C(=O)C5CCOC(C)(C)C5)C4)ncnc3n2C)c1C` (stereo partly specified) showed an IC50 of 1.2 nM.

Compound `CCn1c(-c2cnc(OC)c(NS(C)(=O)=O)c2)nc2c(O[C@H]3CCN(C(=O)C4CC4)C3)ncnc21` displayed an IC50 below 1 nM.

On to `CCn1ncc(-c2nc3c(O[C@H]4CCN(c5cncc(C)n5)C4)ncnc3n2C)c1C`, for which the IC50 worked out at 26 nM. That is a double-digit nanomolar value.

On to `CCC(=O)N1CC[C@H](Oc2ncnc3c2nc(-c2cc(F)cc(NS(C)(=O)=O)c2)n3C)C1`, for which the IC50 was 10 nM.

For the compound `CCNC(=O)N1CC[C@H](Oc2ncnc3c2nc(-c2cnc(C)nc2)n3CC)C1`, the IC50 is 19 nM.

`CCOC(=O)C(C)NC(=O)N1CC[C@H](Oc2ncnc3c2nc(-c2cnn(CC)c2C)n3C)C1` (stereo partly specified) returned an IC50 of 110 nM.

Turning to `CCn1c(-c2cnc(C)nc2)nc2c(O[C@H]3CCN(C(=O)C=C(C)C)C3)ncnc21`, the IC50 came to 4.4 nM. Compared with the last compound, the IC50 is about 25-fold lower.

`CCn1ncc(-c2nc3c(O[C@H]4CCN(C(=O)c5ccnc(C)c5)C4)ncnc3n2C)c1C` gave an IC50 of 25 nM.

`CCn1ncc(-c2nc3c(O[C@H]4CCN(C(=O)c5ccc(C)nc5)C4)ncnc3n2C)c1C` gave an IC50 of 70 nM.

In turn, `CCn1c(-c2cnc(N)c(C(F)(F)F)c2)nc2c(O[C@H]3CCN(C(=O)C4CC4)C3)ncnc21` registered an IC50 of 1.1 nM. This IC50 is about 64-fold lower than that of the compound before.

With `CCn1ncc(-c2nc3c(O[C@H]4CCN(C(=O)OCC(C)(C)C)C4)ncnc3n2C)c1C`, the IC50 worked out at 28 nM.

The compound `CCn1ncc(-c2nc3c(O[C@@H]4CC[C@H](NC(=O)C5CCOCC5)C4)ncnc3n2C)c1C` returned an IC50 of 290 nM.
